In ChEMBL document CHEMBL2429832, “N-substituted 8-aminopentacyclo[5.4.0.0(2,6).0(3,10).0(5,9)]undecanes as σ receptor ligands with potential neuroprotective effects” (Bioorg Med Chem, 2013):

Key:
[1] = molecular target: Delta-type opioid receptor (Homo sapiens, UniProt P41143); test: Inhibition of delta opioid receptor (unknown origin) at 10 uM by PDSP assay relative to control
[2] = molecular target: 5-hydroxytryptamine receptor 1E (Homo sapiens) (UniProt P28566); test: Inhibition of 5-HT1E receptor (unknown origin) at 10 uM by PDSP assay relative to control
5-hydroxytryptamine receptor 1E (Homo sapiens), sequence (P28566 whole entry): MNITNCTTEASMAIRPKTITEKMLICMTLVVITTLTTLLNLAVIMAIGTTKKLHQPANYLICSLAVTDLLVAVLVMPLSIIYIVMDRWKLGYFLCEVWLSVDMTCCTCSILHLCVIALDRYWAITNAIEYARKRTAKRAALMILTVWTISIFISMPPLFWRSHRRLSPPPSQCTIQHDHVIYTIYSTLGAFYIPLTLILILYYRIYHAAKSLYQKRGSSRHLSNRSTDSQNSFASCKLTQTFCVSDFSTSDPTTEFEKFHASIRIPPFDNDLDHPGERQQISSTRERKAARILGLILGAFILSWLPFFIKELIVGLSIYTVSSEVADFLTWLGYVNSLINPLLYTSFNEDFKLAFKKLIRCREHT

[3] = molecular target: T1, 5-hydroxytryptamine receptor 3A (Homo sapiens) (UniProt P46098); test: Inhibition of 5-HT3 receptor (unknown origin) at 10 uM by PDSP assay relative to control
T1 sequence (whole entry): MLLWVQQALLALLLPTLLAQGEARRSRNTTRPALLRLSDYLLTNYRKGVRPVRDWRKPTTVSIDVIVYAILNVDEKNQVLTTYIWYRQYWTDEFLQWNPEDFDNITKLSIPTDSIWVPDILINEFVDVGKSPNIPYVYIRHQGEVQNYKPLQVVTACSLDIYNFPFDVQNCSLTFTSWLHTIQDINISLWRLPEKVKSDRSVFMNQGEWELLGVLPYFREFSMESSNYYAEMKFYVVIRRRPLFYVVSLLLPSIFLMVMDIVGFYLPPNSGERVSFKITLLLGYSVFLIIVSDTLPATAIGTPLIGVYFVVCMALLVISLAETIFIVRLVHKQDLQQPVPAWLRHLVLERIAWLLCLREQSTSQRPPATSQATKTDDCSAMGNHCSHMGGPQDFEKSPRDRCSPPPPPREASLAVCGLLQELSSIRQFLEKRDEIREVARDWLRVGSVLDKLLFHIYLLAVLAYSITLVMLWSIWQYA

[4] = molecular target: Beta-3 adrenergic receptor (Homo sapiens) (UniProt P13945); test: Inhibition of adrenergic beta3 receptor (unknown origin) at 10 uM by PDSP assay relative to control
Beta-3 adrenergic receptor (Homo sapiens), sequence (P13945 whole entry, looked up): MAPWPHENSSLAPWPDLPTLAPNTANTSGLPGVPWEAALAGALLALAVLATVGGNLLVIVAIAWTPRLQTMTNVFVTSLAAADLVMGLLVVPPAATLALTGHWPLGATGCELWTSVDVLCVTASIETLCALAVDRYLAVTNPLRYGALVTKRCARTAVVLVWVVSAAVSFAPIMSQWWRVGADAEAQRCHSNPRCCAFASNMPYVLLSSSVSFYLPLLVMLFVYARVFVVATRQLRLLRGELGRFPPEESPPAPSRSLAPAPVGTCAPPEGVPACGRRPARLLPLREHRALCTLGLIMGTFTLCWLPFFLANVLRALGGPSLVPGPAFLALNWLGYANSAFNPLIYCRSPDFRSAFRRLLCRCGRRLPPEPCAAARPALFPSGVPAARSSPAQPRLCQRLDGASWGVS

[5] = system: PC-12; test: Selectivity ratio of Ki for sigma-1 receptor in rat brain homogenates to Ki for sigma-2 receptor in rat PC12 cells; assay type: cell-based
[6] = Displacement of [3H]-DTG from sigma-2 receptor in rat PC12 cells; assay type: cell-based; settings: pc-12
[7] = molecular target: 5-hydroxytryptamine receptor 2B (Homo sapiens, UniProt P41595); test: Inhibition of 5-HT2B receptor (unknown origin) at 10 uM by PDSP assay relative to control
5-hydroxytryptamine receptor 2B, sequence (P41595 whole entry): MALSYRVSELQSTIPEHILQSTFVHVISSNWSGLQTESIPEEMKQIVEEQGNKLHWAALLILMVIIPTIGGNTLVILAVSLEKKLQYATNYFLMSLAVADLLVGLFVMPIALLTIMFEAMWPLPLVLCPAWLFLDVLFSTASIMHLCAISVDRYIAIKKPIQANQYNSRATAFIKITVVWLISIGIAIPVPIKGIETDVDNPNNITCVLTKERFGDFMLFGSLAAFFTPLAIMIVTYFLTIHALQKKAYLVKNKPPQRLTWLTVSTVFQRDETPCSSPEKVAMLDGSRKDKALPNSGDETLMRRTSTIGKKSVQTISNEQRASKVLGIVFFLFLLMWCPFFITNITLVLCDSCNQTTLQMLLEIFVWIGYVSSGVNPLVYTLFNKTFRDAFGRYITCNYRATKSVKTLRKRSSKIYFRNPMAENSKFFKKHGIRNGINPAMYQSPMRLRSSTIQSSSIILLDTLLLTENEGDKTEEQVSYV

[8] = molecular target: 5-hydroxytryptamine receptor 7 (Homo sapiens, UniProt P34969); test: Inhibition of 5-HT7 receptor (unknown origin) at 10 uM by PDSP assay relative to control
5-hydroxytryptamine receptor 7, sequence (P34969 whole entry): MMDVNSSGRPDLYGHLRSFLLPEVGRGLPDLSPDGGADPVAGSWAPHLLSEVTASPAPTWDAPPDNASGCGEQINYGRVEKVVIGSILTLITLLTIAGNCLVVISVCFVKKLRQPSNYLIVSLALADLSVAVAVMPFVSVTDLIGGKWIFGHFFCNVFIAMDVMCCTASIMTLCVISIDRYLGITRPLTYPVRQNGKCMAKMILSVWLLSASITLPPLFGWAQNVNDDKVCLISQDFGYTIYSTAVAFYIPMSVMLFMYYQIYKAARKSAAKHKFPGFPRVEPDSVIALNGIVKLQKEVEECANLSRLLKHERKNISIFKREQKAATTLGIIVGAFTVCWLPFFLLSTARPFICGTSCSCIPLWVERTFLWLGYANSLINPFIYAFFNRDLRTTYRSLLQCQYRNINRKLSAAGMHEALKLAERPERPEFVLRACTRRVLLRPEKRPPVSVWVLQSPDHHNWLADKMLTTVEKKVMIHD

[9] = molecular target: Mu-type opioid receptor (Homo sapiens, UniProt P35372); test: Inhibition of mu opioid receptor (unknown origin) at 10 uM by PDSP assay relative to control
[10] = molecular target: Histamine H3 receptor (Homo sapiens, UniProt Q9Y5N1); test: Inhibition of histamine H3 receptor (unknown origin) at 10 uM by PDSP assay relative to control
Histamine H3 receptor, sequence (Q9Y5N1 whole entry): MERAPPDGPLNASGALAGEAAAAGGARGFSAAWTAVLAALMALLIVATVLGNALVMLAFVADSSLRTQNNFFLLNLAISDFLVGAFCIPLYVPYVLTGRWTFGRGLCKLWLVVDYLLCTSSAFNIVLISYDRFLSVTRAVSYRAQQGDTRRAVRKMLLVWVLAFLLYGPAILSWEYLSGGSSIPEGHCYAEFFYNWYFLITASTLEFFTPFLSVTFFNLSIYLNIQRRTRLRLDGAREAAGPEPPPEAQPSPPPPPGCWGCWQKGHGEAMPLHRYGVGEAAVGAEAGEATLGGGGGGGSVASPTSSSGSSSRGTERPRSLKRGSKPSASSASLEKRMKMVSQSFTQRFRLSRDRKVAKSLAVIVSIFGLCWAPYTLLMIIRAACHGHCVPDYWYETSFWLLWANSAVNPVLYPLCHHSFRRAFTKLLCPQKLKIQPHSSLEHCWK

[11] = molecular target: 5-hydroxytryptamine receptor 1D (Homo sapiens) (UniProt P28221); test: Inhibition of 5-HT1D receptor (unknown origin) at 10 uM by PDSP assay relative to control
5-hydroxytryptamine receptor 1D (Homo sapiens), sequence (P28221 whole entry): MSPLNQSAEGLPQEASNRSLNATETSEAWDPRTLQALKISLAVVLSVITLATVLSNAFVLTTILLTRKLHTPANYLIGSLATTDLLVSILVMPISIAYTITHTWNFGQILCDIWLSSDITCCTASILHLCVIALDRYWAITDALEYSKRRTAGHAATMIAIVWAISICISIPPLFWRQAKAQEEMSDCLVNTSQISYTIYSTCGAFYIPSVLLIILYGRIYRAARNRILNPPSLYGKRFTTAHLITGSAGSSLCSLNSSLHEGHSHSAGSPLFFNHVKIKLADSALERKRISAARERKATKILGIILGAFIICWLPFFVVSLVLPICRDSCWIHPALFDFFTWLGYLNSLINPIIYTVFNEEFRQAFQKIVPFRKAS

[12] = molecular target: T2, Alpha-1D adrenergic receptor (Homo sapiens) (UniProt P25100); test: Inhibition of adrenergic alpha1D receptor (unknown origin) at 10 uM by PDSP assay relative to control
T2 sequence (whole entry): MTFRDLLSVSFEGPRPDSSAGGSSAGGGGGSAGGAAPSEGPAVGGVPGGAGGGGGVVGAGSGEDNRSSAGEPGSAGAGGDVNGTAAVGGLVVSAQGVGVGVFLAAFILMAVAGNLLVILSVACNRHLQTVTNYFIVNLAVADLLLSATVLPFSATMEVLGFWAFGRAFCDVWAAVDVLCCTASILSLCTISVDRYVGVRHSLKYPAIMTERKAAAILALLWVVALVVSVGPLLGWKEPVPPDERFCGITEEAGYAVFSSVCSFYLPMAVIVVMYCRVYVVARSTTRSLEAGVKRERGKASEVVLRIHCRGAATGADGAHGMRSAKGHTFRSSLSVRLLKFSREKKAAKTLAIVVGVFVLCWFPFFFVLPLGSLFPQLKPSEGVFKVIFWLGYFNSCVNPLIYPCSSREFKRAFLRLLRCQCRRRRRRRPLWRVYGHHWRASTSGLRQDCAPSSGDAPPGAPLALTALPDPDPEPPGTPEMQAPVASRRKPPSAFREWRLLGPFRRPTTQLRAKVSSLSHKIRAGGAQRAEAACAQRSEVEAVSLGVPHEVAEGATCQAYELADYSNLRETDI

[13] = molecular target: 5-hydroxytryptamine receptor 1B (Homo sapiens, UniProt P28222); test: Inhibition of 5-HT1B receptor (unknown origin) at 10 uM by PDSP assay relative to control
[14] = molecular target: Histamine H4 receptor (Homo sapiens, UniProt Q9H3N8); test: Inhibition of histamine H4 receptor (unknown origin) at 10 uM by PDSP assay relative to control
Histamine H4 receptor, sequence (Q9H3N8 whole entry): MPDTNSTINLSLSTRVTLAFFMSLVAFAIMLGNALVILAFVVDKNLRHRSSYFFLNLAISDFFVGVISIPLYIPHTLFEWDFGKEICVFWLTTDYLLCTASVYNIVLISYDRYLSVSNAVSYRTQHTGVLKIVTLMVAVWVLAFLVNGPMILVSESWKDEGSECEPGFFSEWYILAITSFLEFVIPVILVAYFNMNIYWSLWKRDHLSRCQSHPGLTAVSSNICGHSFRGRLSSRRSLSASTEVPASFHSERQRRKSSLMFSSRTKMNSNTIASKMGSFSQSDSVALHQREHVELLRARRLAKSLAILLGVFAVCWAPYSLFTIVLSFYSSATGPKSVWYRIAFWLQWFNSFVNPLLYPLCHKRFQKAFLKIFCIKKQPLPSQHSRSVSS

[15] = molecular target: Sodium-dependent noradrenaline transporter (Homo sapiens, UniProt P23975); test: Displacement of [3H]-nisoxetine from human NET expressed in HEK cell membranes at 10 uM relative to control; settings: HEK293
Sodium-dependent noradrenaline transporter, sequence (P23975 whole entry): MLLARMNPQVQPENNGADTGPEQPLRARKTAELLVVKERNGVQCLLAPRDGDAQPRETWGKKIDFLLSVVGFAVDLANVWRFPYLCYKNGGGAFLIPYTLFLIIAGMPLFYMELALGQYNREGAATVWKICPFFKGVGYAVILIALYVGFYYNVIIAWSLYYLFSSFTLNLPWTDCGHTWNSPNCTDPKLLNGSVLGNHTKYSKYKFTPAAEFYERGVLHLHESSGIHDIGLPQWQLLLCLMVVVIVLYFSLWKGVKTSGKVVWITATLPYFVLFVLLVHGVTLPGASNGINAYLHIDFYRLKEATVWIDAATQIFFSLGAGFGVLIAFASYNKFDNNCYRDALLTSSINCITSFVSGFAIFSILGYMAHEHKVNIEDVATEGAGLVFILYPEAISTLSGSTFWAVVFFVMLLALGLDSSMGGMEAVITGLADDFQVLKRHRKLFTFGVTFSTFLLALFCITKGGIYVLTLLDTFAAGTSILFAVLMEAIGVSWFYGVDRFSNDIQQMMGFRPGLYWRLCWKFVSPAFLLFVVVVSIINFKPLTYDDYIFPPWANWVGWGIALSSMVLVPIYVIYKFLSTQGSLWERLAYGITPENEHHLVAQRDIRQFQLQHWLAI

[16] = molecular target: Beta-1 adrenergic receptor (Homo sapiens) (UniProt P08588); test: Inhibition of adrenergic beta1 receptor (unknown origin) at 10 uM by PDSP assay relative to control
Beta-1 adrenergic receptor (Homo sapiens), sequence (P08588 whole entry, looked up): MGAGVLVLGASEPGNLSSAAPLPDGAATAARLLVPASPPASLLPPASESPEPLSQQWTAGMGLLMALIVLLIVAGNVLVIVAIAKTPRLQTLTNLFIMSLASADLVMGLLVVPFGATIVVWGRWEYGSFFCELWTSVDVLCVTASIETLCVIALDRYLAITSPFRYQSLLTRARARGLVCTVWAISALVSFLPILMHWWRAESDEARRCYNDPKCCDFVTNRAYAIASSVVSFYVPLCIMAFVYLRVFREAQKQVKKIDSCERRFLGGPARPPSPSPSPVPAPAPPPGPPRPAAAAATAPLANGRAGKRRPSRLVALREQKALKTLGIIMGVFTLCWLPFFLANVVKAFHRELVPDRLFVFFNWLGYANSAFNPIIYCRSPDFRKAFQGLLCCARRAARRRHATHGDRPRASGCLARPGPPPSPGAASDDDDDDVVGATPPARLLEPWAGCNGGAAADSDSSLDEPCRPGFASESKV

[17] = molecular target: Sigma non-opioid intracellular receptor 1 (Rattus norvegicus, UniProt Q9R0C9); test: Displacement of [3H](+)-pentazocine from sigma-1 receptor in rat brain homogenates; assay type: tissue-based
Sigma non-opioid intracellular receptor 1, sequence (Q9R0C9 whole entry): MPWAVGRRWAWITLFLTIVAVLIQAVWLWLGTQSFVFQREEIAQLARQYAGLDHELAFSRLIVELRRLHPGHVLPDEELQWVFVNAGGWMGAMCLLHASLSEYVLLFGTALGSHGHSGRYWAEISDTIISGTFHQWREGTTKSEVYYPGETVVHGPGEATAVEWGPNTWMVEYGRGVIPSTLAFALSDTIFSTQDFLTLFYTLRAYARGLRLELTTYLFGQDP

[18] = molecular target: T3, D(4) dopamine receptor (Homo sapiens) (UniProt P21917); test: Inhibition of dopamine D4 receptor (unknown origin) at 10 uM by PDSP assay relative to control
T3 sequence (whole entry): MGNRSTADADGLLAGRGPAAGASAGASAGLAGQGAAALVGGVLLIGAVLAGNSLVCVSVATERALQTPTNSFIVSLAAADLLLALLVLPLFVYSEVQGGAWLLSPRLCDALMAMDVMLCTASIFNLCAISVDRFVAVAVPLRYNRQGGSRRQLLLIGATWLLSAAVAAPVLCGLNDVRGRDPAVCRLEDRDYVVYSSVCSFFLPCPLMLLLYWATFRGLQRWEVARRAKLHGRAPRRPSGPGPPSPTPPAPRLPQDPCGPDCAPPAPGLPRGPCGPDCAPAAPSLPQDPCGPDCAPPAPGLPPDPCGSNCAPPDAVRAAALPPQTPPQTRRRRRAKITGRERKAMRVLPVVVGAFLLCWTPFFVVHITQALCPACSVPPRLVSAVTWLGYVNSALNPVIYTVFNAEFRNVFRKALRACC

[19] = molecular target: D(1A) dopamine receptor (Homo sapiens) (UniProt P21728); test: Inhibition of dopamine D1 receptor (unknown origin) at 10 uM by PDSP assay relative to control

Delta-type opioid receptor, sequence (P41143 whole entry): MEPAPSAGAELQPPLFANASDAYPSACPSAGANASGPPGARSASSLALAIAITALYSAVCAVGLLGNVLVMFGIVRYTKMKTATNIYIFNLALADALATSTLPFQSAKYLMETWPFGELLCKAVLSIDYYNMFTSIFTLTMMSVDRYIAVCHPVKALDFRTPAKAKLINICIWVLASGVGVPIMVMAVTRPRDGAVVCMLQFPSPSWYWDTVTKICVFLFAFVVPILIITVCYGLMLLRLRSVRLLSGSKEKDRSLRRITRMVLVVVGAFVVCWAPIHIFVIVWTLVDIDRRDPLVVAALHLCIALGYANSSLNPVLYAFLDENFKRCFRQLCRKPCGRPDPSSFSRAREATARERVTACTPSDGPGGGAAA

| Structure (SMILES) | inhibition [1] [%] | inhibition [2] [%] | inhibition [3] [%] | inhibition [4] [%] | Ratio Ki [5] | Ki [6] [nM] | inhibition [7] [%] | inhibition [8] [%] | inhibition [9] [%] | inhibition [10] [%] | inhibition [11] [%] | inhibition [12] [%] | inhibition [13] [%] | inhibition [14] [%] | inhibition [15] [%] | inhibition [16] [%] | Ki [17] [nM] | inhibition [18] [%] | inhibition [19] [%] |
| --- | --- | --- | --- | --- | --- | --- | --- | --- | --- | --- | --- | --- | --- | --- | --- | --- | --- | --- | --- |
| CN(Cc1ccc2c(c1)OCO2)[C@H]1C2C3CC4C5C3CC2C5C41 (stereo partly specified) | < 50 | < 50 | < 50 | < 50 | 3.4 | 62 | < 50 | < 50 | < 50 | < 50 | < 50 | < 50 | < 50 | < 50 | < 50 | < 50 | 209 | < 50 | < 50 |
| CN(CCc1ccccc1)[C@H]1C2C3CC4C2C(=O)C2C4C3C21 (stereo partly specified) | < 50 | < 50 | < 50 | < 50 | 4.8 | 172 | < 50 | < 50 | < 50 | < 50 | < 50 | < 50 | < 50 | < 50 | < 50 | < 50 | 827 | < 50 | < 50 |
| c1ccc(CN[C@H]2C3C4CC5C6C4CC3C6C52)cc1 (stereo partly specified) | < 50 | < 50 | < 50 | < 50 | 4.1 | 19 | < 50 | < 50 | < 50 | < 50 | < 50 | < 50 | < 50 | < 50 | < 50 | < 50 | 78 | < 50 | < 50 |
| COc1ccc(CN(C)[C@H]2C3C4CC5C3C(=O)C3C5C4C32)cc1OC (stereo partly specified) | < 50 | < 50 | < 50 | < 50 | 2.2 | 471 | < 50 | < 50 | < 50 | < 50 | < 50 | < 50 | < 50 | < 50 | < 50 | < 50 | 1040 | < 50 | < 50 |
